# Test results reported in patent US7638269B2, “Viral capsid assembly intermediates and methods of production” (priority 1997, dated 2009).
# “Also recorded” adds a separate entry of the source.
# B1: WGHP68-GST: fusion protein of wheat germ HP68 with GST at the N-terminus (protein)
# chain: MADRLTRIAIVSEDKCKPKKCRQECKKSCPVVKTGKLCIEVSPVAKLAFISEELCIGCGICVKKCPFDAIEIINLPKDLEKDTTHRYGPNTFKLHRLPVPRPGQVLGLVGTNGIGKSTALKVLAGKLKPNLGRFKNPPDWQEILTYFRGSELQNYFTRILEDNLKAIIKPQYVDHIPKAVQGNVGQVLEQKDERDMKNELCVDLELNQVIDRNVGDLSGGELQRFAIAVVAVQSAEIYMFDEPSSYLDVKQRLKAARVIRSLLRSNSYVIVVEHDLSVLDYLSDFICCLYGKPGAYGVVTLPFSVREGINIFLAGFVPTENLRFRDESLTFKIAETQESAEEVATYQRYKYPTMSKTQGNFKLSVVEGEFTDSQIVVMLGENGTGKTTFIRMLAGLLKPDTMEGTEVEIPEFNVSYKPQKISPKFQHPVRHLLHSKIRDSYTHPQFVSDVMKPLQIEQLMDQEVINLSGGELQRVALCLCLGKPADIYLIDEPSAYLDSEQRIVASKVIKRFILHAKKTAFIVEHDFIMATYLADKVIVYEGLASIDCTANAPQSLVSGMNKFLSHLDITFRRDPTNYRPRINKLESTKDREQKNAGSYYYLDD
# modifications: left off: a dimerising Fc or GST
# notes: fusion protein of wheat germ HP68 with GST at the N-terminus
# B2: WGHP68-Tr1: 379 amino acid truncated form of wheat germ HP68, stop codon before the second nucleotide-binding domain (protein)
# chain: MADRLTRIAIVSEDKCKPKKCRQECKKSCPVVKTGKLCIEVSPVAKLAFISEELCIGCGICVKKCPFDAIEIINLPKDLEKDTTHRYGPNTFKLHRLPVPRPGQVLGLVGTNGIGKSTALKVLAGKLKPNLGRFKNPPDWQEILTYFRGSELQNYFTRILEDNLKAIIKPQYVDHIPKAVQGNVGQVLEQKDERDMKNELCVDLELNQVIDRNVGDLSGGELQRFAIAVVAVQSAEIYMFDEPSSYLDVKQRLKAARVIRSLLRSNSYVIVVEHDLSVLDYLSDFICCLYGKPGAYGVVTLPFSVREGINIFLAGFVPTENLRFRDESLTFKIAETQESAEEVATYQRYKYPTMSKTQGNFKLSVVEGEFTDSQIVVM
# How the values were obtained:
# [1] = system: immature HIV capsids (Gag Pr55); assay: Cell-free translation and assembly of HIV capsids in wheat germ extract programmed with Gag transcript; type: biochemical; details: for Material in fractions corresponding to Final Capsid / Material in fractions corresponding to complex A / Material in fractions corresponding to complexes B/C: velocity sedimentation, apyrase added post-translationally, detergent cotranslationally
# Description: Translation of the transcription products was carried out in wheat germ extract containing ^35S methionine (ICN Pharmaceuticals, Costa Mesa, Calif.). The wheat germ extract was prepared as described by Erickson and Blobel (1983) as modified below. Reactions were performed as previously described (Lingappa, J. R., et al., J. Cell. Biol. (1984) 125:99-111), except for modifications noted below.
# A 25 microliter wheat germ transcription/translation reaction mixture contained: 5 microliters Gag transcript (prepared as described in transcription methods), 5 microliters wheat germ extract (prepared as described in wheat germ preparation; preferably using the high speed supernatant detailed in Example 4), 5 microliters 35-S Energy Mix 5× stock (Sigma Chemical Co., St. Louis, Mo.), 2.5 microliters Compensating Buffer (Sigma Chemical Co.), 1.0 microliter 40 mM MgAcetate (Sigma Chemical Co.), 2.0 microliters […] Myristoyl CoA (made up in 20 mM Tris Acetate, pH 7.6; Sigma Chemical Co.), 3.75 microliters 20 mM Tris Acetate buffer, […] (U.S. Biochemicals; Cleveland, Ohio), 0.25 microliter Creatine Kinase (4 mg/ml stock in 50% glycerol, 10 mM Tris Acetate; Boehringer Mannheim, Indianapolis, Ind.), 0.25 microliter bovine tRNA (10 mg/ml stock; Sigma Chemical Co.), and 0.25 microliter RNAse Inhibitor (20 units/50; Promega).
# Myristoyl coenzyme A (MCoA; Sigma, St. Louis, Mo.) was added at a concentration of 10 micromolar at the start of translation when indicated. Translation reactions ranged in volume from 20 to 100 microliters and were incubated at 25° C. for 150 min. Some reactions were adjusted to a final concentration of the following agents at tunes indicated in the figures and specification: 0.2 μM emetine (Sigma); 1.0 units apyrase (Sigma) per mL translation; 0.002%, 0.1%, or 1.0% “NIKKOL”. Cell-free translation and assembly reactions were also carried out successfully in rabbit reticulocyte lysate prepared as described previously (Merrick, W. C., Methods Enzymol. 101:606-615 (1983)) or obtained from commercial suppliers (Promega, Madison, Wis.). In pulse-chase experiments, translation reactions contained ^35S cysteine (Amersham Life Sciences, Cleveland, Ohio) for radiolabeling. After 4 min translation reaction time, 3 mM unlabeled cysteine was added, and the reaction was continued at 25° C. for variable chase times as indicated in the experiments described herein.
# Where indicated, wheat germ extract prepared as described in Example 1 was centrifuged at either 50,000 rpm for 21 min or 100,000 rpm for 30 min in a TLA 100 rotor (Beckman Instruments, Palo Alto, Calif.). The supernatant (high-speed supernatant, HSS) of the 50,000 rpm spin was used for cell-free translation and assembly reactions. The pellet of the 100,000 rpm spin (high speed pellet, HSP) was resuspended at a 5× concentration in buffer (25 mM Hepes pH 7.4, 4 mM MgAc, 100 mM KAc, 0.25M sucrose). Wheat germ extract adjusted to contain a concentration 0.5% “NIKKOL” was subjected to the same ultracentrifugation in parallel to generate the detergent treated high-speed pellet (HSPd). This pellet was washed twice with […] of the above non-detergent buffer in order to remove traces of detergent, and then resuspended as described above. Following treatment with emetine at […], 1.8 μL of HSP or HSPd was added to the […] cell-free reactions programmed with HSS. Control reactions were treated with the same volume of buffer at the same time. At the end of the 150 min incubation, reactions were separated into soluble and particulate fractions and analyzed as described above.
# The cell-free translation/assembly system of the invention contains the components described in Part A, above. Example 1 provides details of an exemplary system derived from wheatgerm extract, which is capable of supporting translation and assembly of HIV capsids. Briefly, protein synthesis was initiated in the cell-free translation/assembly system by adding an mRNA that encodes Gag Pr55 protein. […]
# HBV capsids (HBV core) = type: biochemical
# Description: The radiolabeled translation products were analyzed for formation of HBV core multimers by rae sedimentation on 10-50% sucrose gradients at 200,000 g for 1 h. Following fractionation of the gradients, the migration of radiolabeled core proteins was determined using SDS-PAGE, Coomassie staining, and autoradiography. Under these conditions, unlabeled protein standards of less than 12S, such as catalase, migrated in the first three fractions. […] The first region, at the top of the gradient (7) corresponds to the position of monomeric and small oligomeric core polypeptides, while the second region, in the middle of the gradient (M), corresponds to the position of authentic capsids. The third region, in the pellet (P), represents very high molecular weight structures. The possibility that either the pellet or the middle fraction consists of completed chains not yet released from ribosomes was ruled out by treatment of the translation products after completion of synthesis with EDTA, which is known to disassemble ribosomes (Sabatini et al., 1966).
# To address this, pellet material was isolated by fractionating the products of a 30-min translation of HBV core on a sucrose gradient and resuspending the pellet in buffer. The resuspended pellet was divided into equal aliquots and treated either with aphyase or with buffer for 90 min at 24° C.
# [2] = system: 750S immature HIV-1 capsids; assay: HP68 immunodepletion-reconstitution of cell-free HIV-1 capsid assembly; type: biochemical
# Description: WG extract (150 μl) was immunodepleted for 45 min at 4° C. with 100 μl beads coupled to antibody against WGHP68. Cell-free reactions (15 μl) were programmed (Lingappa et al., J. Cell Biol. 136:567-81 (1997)) using non-depleted WG or depleted WG. To some reactions containing depleted WG, purified WGHP68-GST or HuHP68-GST fusion protein or GST alone was added (2 μl of approx. 20 ng/μl) at the start of the reaction. After 3 hours at 26° C., NP40 was added to a final concentration of 1% and reactions underwent velocity sedimentation (5 ml, 15-60% sucrose gradients, Beckman MLS55 rotor: 45,000 rpm, 45 min). Thirty fractions, collected using a fractionator, were analyzed by SDS-PAGE and AR, followed by densitometry of Gag in each lane. For Proteinase K digestion, aliquots of fractions from the 500S and 750S regions of the gradient were collected and subjected to a 10 min incubation at RT with either no Proteinase K or 0.1 μg/ml Proteinase K. Digestion was terminated by adding SDS and freezing. Samples were analyzed by SDS-PAGE and AR. Graphs show average of three independent experiments (+/−SEM).
# To generate purified HP68, WGHP68 and HuHP68 were subcloned into a pGEX vector (Pharmacia), to encode fusion proteins containing GST at the N-terminus. […] Concentration of fusion protein and GST in eluate was determined using the Coomassie Plus protein assay (Pierce). […]
# HIV-1 particle formation = type: cell-based; details: Cos-1 cells
# Description: Cos-1 cells were transfected using Gag expression plasmids pCMVRev and PSVGagRRE-R described in Simon et al, J. Virology, (1997) 71:1013-18. HP68 plasmids for mammalian expression were constructed by using PCR to insert the coding regions for WGHP68, amino acids 1-378, Nhe1/Xba1 of pCDNA 3.1 (Invitrogen). Coding regions of all constructs were sequenced. Cells were transfected using Gibco Lipofectamine (Cos-1) or Lipofectamine Plus (293T). All transfections used a constant amount of DNA (18 μg per 60 mm dish). Medium was changed 24 hours after transfection and harvest was performed 28 or 60 hours after transfection for immunofluorescence and immunoblotting respectively. For immunofluorescence, cells were fixed in paraformaldehyde, permeabilized with 1% triton, and incubated with mouse HIV-1 Gag antibody (1:50) and affinity-purified HuHP68 antiserum (1:2000), followed by Cy3- and Cy 2-coupled secondary (Jackson) (1:200). 178 cells were quantitated. For immunoblotting in FIG. 13 rat IgG was added to medium as a tracer at 10 μg/ml at the time of harvest, and cells were harvested in SDS sample buffer with boiling. For quantitation of immunoblotts, bands were compared to an immunoblot standard curve generated with known quantities of sample. […]
# [3] = emetine added after 50 min, incubated to 150 min
# Chain of HBV capsids (HBV core) (P03146 whole entry): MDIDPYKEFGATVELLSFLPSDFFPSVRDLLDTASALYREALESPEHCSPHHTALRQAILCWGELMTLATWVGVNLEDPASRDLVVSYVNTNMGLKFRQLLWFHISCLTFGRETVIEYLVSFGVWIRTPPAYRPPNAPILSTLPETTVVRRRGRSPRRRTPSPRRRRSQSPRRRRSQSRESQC
molecule,measurement,setting,value
Nc1ncnc2c1ncn2[C@@H]1O[C@H](COP(=O)(O)OP(=O)(O)NP(=O)(O)O)[C@@H](O)[C@H]1O [AMP-PNP],reversal of the effect of ATP depletion on assembly,[1]; added after apyrase treatment,not reversed
O=C(O)CN(CCN(CC(=O)O)CC(=O)O)CC(=O)O [EDTA],"distribution of labeled core polypeptides in top, middle and pellet fractions","HBV capsids (HBV core); treatment of translation products after completion of synthesis, 10 mM",largely unaffected; also recorded: had no effect
"CCCCCCCCCCCCCC(=O)SCCNC(=O)CCNC(=O)[C@H](O)C(C)(C)COP(=O)(O)OP(=O)(O)OC[C@H]1O[C@@H](n2cnc3c(N)ncnc32)[C@H](O)[C@@H]1OP(=O)(O)O [MCoA, Myristoyl Coenzyme A]",total amount of Pr55 synthesized,[1]; 10 μM MCoA,had no effect on the total amount of Pr55 synthesized
same,assembly into capsids,"[1]; 10 μM MCoA added at 90 min, post-translational phase",very little assembly occurred
"CCCCCCCCCCCCOCCOCCOCCOCCOCCOCCOCCOCCO [NIKKOL, octaethyleneglycol mono n-dodecyl ether]",capsid assembly,"[1]; 0.002% added at start of translation, 10 μM MCoA",This effect was not observed
same,capsid assembly,"[1]; 0.1% added at start of translation, 10 μM MCoA",largely abolished capsid assembly
same,amount of assembly,"[1]; added after completion of the 150 min assembly reaction, up to 1.0%",did not diminish the amount of assembly
same,Gag polypeptide synthesis,[1]; concentration of 0.1%,had no effect on Gag polypeptide synthesis
same,assembly,"[1]; emetine and 0.1% NIKKOL, post-translational phase 50 min into the reaction",assembly was dramatically reduced
same,Material in fractions corresponding to Final Capsid,[1],189
same,Material in fractions corresponding to complex A,[1],2656
same,Material in fractions corresponding to complexes B/C,[1],6130
CC[C@H]1CN2CCc3cc(OC)c(OC)cc3[C@@H]2C[C@@H]1C[C@H]1NCCc2cc(OC)c(OC)cc21 [emetine],proportion of capsid assembly,[1]; [3],comparable to that of the untreated control
same,"total Pr55 synthesis, of the control",[1]; [3],60%
same,effect on treatment of the isolated pellet with energy substrates or apyrase,HBV capsids (HBV core),did not affect the results
apyrase,amount of assembly (capsid stability),[1]; apyrase added after capsid assembly was completed,had no effect on the amount of assembly
same,total amount of Pr55 synthesis,[1]; apyrase added after emetine at 50 min,did not change the total amount of Pr55 synthesis
same,capsid assembly,"[1]; apyrase added immediately after 0.2 μM emetine at 50 min, 150 min",dramatic reduction in capsid assembly
same,Material in fractions corresponding to Final Capsid,[1],133
same,Material in fractions corresponding to complex A,[1],2851
same,Material in fractions corresponding to complexes B/C,[1],5999
same,release of capsids from the isolated pellet,"HBV capsids (HBV core); resuspended pellet of a 30-min translation, 90 min at 24° C.",results in release of completed capsids from the pellet
B1,total amount of radiolabeled Gag synthesized,[2]; added to HP68 immunodepleted WG extract,had no effect
same,increase in the amount of 750S capsid,[2]; added to HP68 immunodepleted WG extract programmed with HIV-1 Gag transcript,3 fold
B2,Gag and actin levels in cell lysates,HIV-1 particle formation,remained unchanged
same,toxicity to cells,HIV-1 particle formation,not toxic to cells
